# Data taken from article PMC9131871, “Impact of Micropolymorphism Outside the Peptide Binding Groove in the Clinically Relevant Allele HLA-C*14 on T Cell Responses in HIV-1 Infection” (Journal of Virology, 2022).
# Target: HLA-C*14:03 (Homo sapiens, UniProt P10321, A176E/A330V/A35S/A97T/C350S/D114A/D33S/L171W/L180R/L218V/M285V/M309V/M331V/P208H/Q277E/Q291P/R121W/R243W/R45H/S123F/S297R/S48A/T329A/T363A/V319A)
# Experiment: HLA stabilization assay on RMA-S-C1403 cells
# Format: cell-based
# Details: 100 μM peptide, 26°C 1 h then 37°C 3 h, MAb DT-9 staining, flow cytometry, triplicate assays
# Description: We next sought to confirm the HLA-C*14:02/C*14:03 restriction of the HIV-1 peptides identified by LC-MS/MS. First, we tested their ability to bind to HLA-C*14:02 or HLA-C*14:03 using HLA stabilization assays. Of the 25 HIV-1 peptides, three Env peptides, Env SI8, Env AM11, and Env VM9, are located in variable regions V2 and V3. In addition, Pol AF10, Pol PF8, Pol VWL9, and Env YI9 are located in regions where high sequence variation is reported in the LANL database. Therefore, we excluded these peptides from further analysis. The other 18 peptides were synthesized and tested for binding to HLA-C*14:02/C*14:03 by analyzing their ability to stabilize surface HLA expression on TAP-defective RMA-S cell lines expressing HLA-C*14:02 (RMA-S-C1402) or HLA-C*14:03 (RMA-S-C1403). These RMA-S cell lines express equivalent levels of HLA-C*14:02 and HLA-C*14:03 on the cell surface at 26°C, and surface HLA expression declines to very low levels when the cells are warmed to 37°C in the absence of exogenously added stabilizing peptides (Fig. 2A). Peptide binding was determined by evaluating whether HLA-I expression was stabilized in the presence of 100 μM peptide.
# FIG 2 HLA-C*14:02/14:03 binding of HIV-1 peptides eluted from NL4-3-infected .221-C1402 and .221-C1403 cells as assessed by HLA stabilization assay using RMA-S cell lines. (A) Histogram plots showing surface expression of HLA-C*14:02 or HLA-C*14:03 on RMA-S-C1402 or RMA-S-C1403 cells at 26°C and after cells cultured at 26°C had been warmed to 37°C for 3 h. MFI values of cells cultured at 26°C were 27.4 for HLA-C*14:02 and 28.1 for HLA-C*14:03. MFI values of cells cultured at 37°C for 3 h were 5.0 for HLA-C*14:02 and 6.54 for HLA-C*14:03. (B) Analysis of binding of 14 HIV-1 NL4.3 peptides identified by LC-MS/MS to HLA-C*14:02 (blue) or HLA-C*14:03 (red) as measured in HLA class I stabilization assays using RMA-S-C1402 or RMA-S-C1403 cells. (C) Analysis of binding of 9 additional variant peptides to HLA-C*14:02 (blue) or C*14:03 (red). For panels B and C, peptides were tested at a concentration of 100 μM. Results are plotted as percent surface HLA-I expression relative to that at 26°C, calculated as the ratio of the MFI of peptide-pulsed RMA-S-C1402 or RMA-S-C1403 cells to that of control (non-peptide-pulsed) cells kept at 26°C, multiplied by 100. Means and standard deviations (SDs) from triplicate assays are shown. Statistical analyses were performed by unpaired t test. The P values were corrected for multiple testing. *, P < 0.05 and q < 0.05; **, P < 0.01 and q < 0.03; ***, P < 0.001 and q < 0.005.
# The relative affinity of peptide binding to HLA-C*14:02 and -C*14:03 was examined using RMA-S-C1402 and RMA-S-C1403 cells as previously described ([15]). Briefly, RMA-S cells were cultured at 26°C for 16 h, pulsed with peptides at 26°C for 1 h, and subsequently incubated at 37°C for 3 h. Staining of cell surface HLA-C molecules was performed with the HLA-C-reactive monoclonal antibody (MAb) DT-9 ([48]), a gift from Mary Carrington, NIH, and fluorescein isothiocyanate (FITC)-conjugated sheep anti-mouse IgG (Jackson ImmunoResearch). Staining data were acquired on a FACSCanto II instrument (BD Biosciences) and analyzed using FlowJo 10.7.1 software. Relative HLA expression was calculated as the ratio of the mean fluorescence intensity (MFI) of peptide-pulsed RMA-S-C1402 cells or RMA-S-C1403 cells to that of control (non-peptide-pulsed) cells kept at 26°C, multiplied by 100 to express the values for peptide-pulsed cells as a percentage of that for the control cells at 26°C.
row,Sequence,binding to HLA-C*14:03 (stabilization of surface HLA expression)
1,"ASGYIEAEV [Pol AV9, HIV-1 NL4-3 Pol 795–803 peptide …]",did not exhibit detectable binding
2,"FFREDLAF [Pol FF8, HIV-1 NL4-3 Pol 1–8 peptide FFREDLAF]",low
3,"FLGAAGSTM [Env FM9, HIV-1 NL4-3 Env 522–530 peptide …]",did not exhibit detectable binding
4,"FMTKALGI [Tat FI8, HIV-1 NL4-3 Tat 38–45 peptide FMTKALGI]",did not exhibit detectable binding
5,"RFDSRLAF [Nef RF8, HIV-1 NL4-3 Nef 184–191 peptide RFDSRLAF]",did not exhibit detectable binding
6,"VYYDPSKDL [Pol VYL9, HIV-1 NL4-3 Pol 472–480 peptide …]",low

# Same assay, conditions: peptide concentrations from 0.1 to 100 μM, 6 epitope peptides compared
row,Sequence,relative affinity in hierarchy of peptide-HLA-C*14 binding (HLA-C*14:03)
1,AFHHVAREL [Nef AL9],lowest
2,AFSPEVIPM [Gag AM9],highest
